Data on 3 substances can be found in PMC7361990, “Molecular Basis for Ser/Thr Specificity in PKA Signaling” (Cells, 2020).

Experiment [1] deals with PKA. Conditions: cited from earlier work. From the text: The PKA C subunit is a classic example for a Ser/Thr kinase with serine specificity and this preference is highly conserved among different species. PKA can select target substrates according to the consensus sequence RRXS*/T*Y, where X is any residue, and Y is a hydrophobic residue.
Experiment [2] concerns the target T1, PKA Cα F187T (Homo sapiens, UniProt P17612, F188T).
T1 construct: made in house
The experiment can be described thus: Coupled spectrophotometric kinase assay. The note with it: mean ± SD of at least three independent measurements; for Km / kcat: 20 nM kinase with S-Kemptide, 10 nM with T-Kemptide, SD; for kcat/KM: catalytic efficiency. The experiment is classed as biochemical. As to the method:
(§1) To determine the Michaelis-Menten constant (KM) and the turnover number (kcat) of purified PKA Cα wt and the DFG+1 mutants for the peptide substrate Kemptide, a coupled spectrophotometric assay was used. As we were interested in the substrate specificity of the kinase, we tested two different peptide substrates: S-Kemptide (LRRASLG) as a serine substrate and T-Kemptide (LRRATLG) as a threonine substrate (GeneCust, Boynes, France). 50 nM PKA Cα wt were used when measured with T-Kemptide and 20 nM wt, F187I, or F187T when measured with S-Kemptide. In all other assays, the final kinase concentration was 10 nM of the respective kinase. All kinases were measured with a minimum of three independent replicates. The calculated turnover was plotted against the […] and analyzed with GraphPad Prism 8.0 (GraphPad Software, San Diego, CA, USA).

Experiment [3] concerns the target T2, PKA Cα F187I (Homo sapiens, UniProt P17612, F188I).
T2 construct: made in house
The experiment can be described thus: Coupled spectrophotometric kinase assay. The note with it: mean ± SD of at least three independent measurements; for Km / kcat: 20 nM kinase with S-Kemptide, 10 nM with T-Kemptide, SD; for kcat/KM: catalytic efficiency. The experiment is classed as biochemical. As to the method:
as §1

Experiment [4] addresses T3, PKA Cα wt (Homo sapiens, UniProt P17612).
T3 construct: made in house
Kind of experiment: Coupled spectrophotometric kinase assay. It counts as biochemical. Conditions: for Km / kcat: 20 nM kinase with S-Kemptide, 50 nM with T-Kemptide, SD; for Km / kcat / kcat/KM: mean ± SD of at least three independent measurements; for kcat/KM: catalytic efficiency. As to the method: as §1

By Km is commonly meant the substrate concentration at which the rate is half of its maximum. Broadly, the kcat is the maximal rate divided by the concentration of active sites.

“GRTGRRNSI [peptide derived from PKI with a serine introduced at the P0 position]”: in experiment [1], the “higher catalytic efficiency than Kemptide” value is “more than 70 fold”.

Take “LRRASLG [S-Kemptide, heptapeptide (LRRASLG), canonical serine substrate of PKA derived from the porcine liver pyruvate kinase]”: in experiment [2], the Km turned out to be 23 ± 3.1 µM, the kcat was determined as 15.7 ± 0.3 s⁻¹ and the kcat/KM was 6.9 ± 1.2 ×10^5 M^−1s^−1. Further, in experiment [3], the Michaelis constant (Km) stood at 92.2 ± 3.8 µM, the kcat was 25.4 ± 5.8 s⁻¹ and the kcat/KM is on record as 2.8 ± 0.8 ×10^5 M^−1s^−1. In experiment [4], the Michaelis-Menten constant (Km) came out at 19.8 ± 3.9 µM, the kcat stood at 19.8 ± 1.0 s⁻¹ and the kcat/KM is listed as 10.3 ± 1.7 ×10^5 M^−1s^−1. Besides, the “higher catalytic efficiency (kcat/KM) for the serine substrate peptide compared to T-Kemptide” value in experiment [4] (S-Kemptide versus T-Kemptide) is given as “more than 100 fold”.

With “LRRATLG [T-Kemptide, LRRATLG, threonine peptide substrate]”, in experiment [2], the Km was found to be 25 ± 3.4 µM, the kcat turned out to be 37.1 ± 4.5 s⁻¹ and the kcat/KM was 14.9 ± 0.6 ×10^5 M^−1s^−1. Besides, in experiment [3], the Km worked out at 19.8 ± 3.3 µM, the kcat was 43.0 ± 4.7 s⁻¹ and the kcat/KM is given as 22.1 ± 4.5 ×10^5 M^−1s^−1. Further, in experiment [4], the Km came to 861 ± 184 µM, the kcat was found to be 7.5 ± 0.8 s⁻¹ and the kcat/KM is listed as 0.09 ± 0.02 ×10^5 M^−1s^−1.
